Source: patent US9605005B2, “Alkynyl alcohols and methods of use” (Genentech, Inc., priority 2013, dated 2017)
Where two headings read alike, the source gives them in different places.

Assays:
[1] = system: REL-A (p65) nuclear translocation, HeLa cells; assay: REL-A (p65) nuclear translocation assay in HeLa cells (classical NF-kB signaling, TNF-α stimulated); format: cell-based; conditions: Homo sapiens, 0.5 h
Summary of the method: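 HeLa cells were exposed to test compounds at various concentrations (0.2% DMSO final) in medium with 10% fetal bovine serum for 4.5 hours, then stimulated for 30 minutes with 10 ng/mL TNF-α. After fixation in 4% paraformaldehyde, 0.1% Triton X-100 permeabilization and staining with 400 ng/mL anti-REL-A (p65) antibody, Alexa488 secondary and DRAQ5, Opera imaging gave nuclear-to-cytoplasmic signal ratios to calculate IC50.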

[2] = system: p52 (NF-kB2) nuclear translocation, HeLa cells; assay: p52 (NF-kB2) nuclear translocation assay in HeLa cells (non-classical NF-kB signaling, anti-lymphotoxin beta receptor antibody stimulated); format: cell-based; conditions: Homo sapiens, 100 ng/mL anti-lymphotoxin beta receptor antibody for 5 hours, read-out: p52 HeLa Transloc Assay (IC50)
Summary of the method: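 HeLa cells in 10% FBS medium were treated with compound (0.2% DMSO final) and stimulated with 100 ng/mL anti-lymphotoxin beta receptor antibody for 5 h. Fixed cells were immunostained for p52 and imaged with DRAQ5 nuclear stain. Translocation is the nuclear to cytoplasmic intensity ratio, and IC50 values are in micromolar.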

[3] = molecular target: nuclear factor-kappa B (NF-kB)-inducing kinase (NIK) (Homo sapiens (Human), UniProt Q99558); assay: NIK enzyme inhibition assay (Transcreener ADP, NIK ADP-FP); format: biochemical; conditions: purified NIK 0.5 nM, 10 μM ATP, fluorescence polarization; read-out: NIK ADP-FP (Ki μM)
[4] = HeLa cells, 10 ng/mL TNF-α for 30 minutes, read-out: REL-A HeLa Transloc Assay (IC50)
[5] = HeLa, read-out: REL-A HeLa Transloc Assay (IC50) [μM]

Sequence of nuclear factor-kappa B (NF-kB)-inducing kinase (NIK) (Q99558 whole entry): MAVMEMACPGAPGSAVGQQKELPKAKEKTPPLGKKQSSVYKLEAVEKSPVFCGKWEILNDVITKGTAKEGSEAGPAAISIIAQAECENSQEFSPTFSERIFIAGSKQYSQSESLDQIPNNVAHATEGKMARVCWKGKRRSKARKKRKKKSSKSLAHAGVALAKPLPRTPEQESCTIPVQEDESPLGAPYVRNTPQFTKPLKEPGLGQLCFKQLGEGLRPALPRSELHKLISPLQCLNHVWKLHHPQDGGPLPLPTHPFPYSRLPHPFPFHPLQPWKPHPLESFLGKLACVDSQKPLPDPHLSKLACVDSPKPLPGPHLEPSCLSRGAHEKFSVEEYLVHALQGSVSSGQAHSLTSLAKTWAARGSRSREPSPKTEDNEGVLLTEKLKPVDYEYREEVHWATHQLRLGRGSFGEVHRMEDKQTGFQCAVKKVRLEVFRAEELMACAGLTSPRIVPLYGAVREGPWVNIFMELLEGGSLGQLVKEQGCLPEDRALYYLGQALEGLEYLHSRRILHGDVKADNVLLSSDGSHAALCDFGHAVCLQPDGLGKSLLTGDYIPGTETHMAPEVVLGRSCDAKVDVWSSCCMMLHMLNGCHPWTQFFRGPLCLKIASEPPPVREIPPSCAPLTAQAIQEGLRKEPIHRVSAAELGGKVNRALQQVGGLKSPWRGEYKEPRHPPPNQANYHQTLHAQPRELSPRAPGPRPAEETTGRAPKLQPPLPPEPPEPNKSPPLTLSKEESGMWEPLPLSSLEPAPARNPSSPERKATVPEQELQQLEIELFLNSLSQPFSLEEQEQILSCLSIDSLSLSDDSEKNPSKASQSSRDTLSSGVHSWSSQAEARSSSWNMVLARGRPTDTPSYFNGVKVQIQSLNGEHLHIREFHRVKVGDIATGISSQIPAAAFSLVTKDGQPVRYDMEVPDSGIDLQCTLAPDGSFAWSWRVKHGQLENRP

Structure (SMILES)	IC50 [1, 4] [µM]	IC50 [2] [nM]	Ki [3] [nM]	IC50 [1, 5] [µM]
CN1CC[C@@](O)(C#Cc2ccnc(-n3nc(C(N)=O)c4c3CCC(C)(C)C4)c2)C1=O [Compound 64, 1-[4-[2-[(3R)-3-hydroxy-1-methyl-2-oxo-pyrrolidin-3-yl]ethynyl]-2-pyridyl]-5,5-dimethyl-6,7-dihydro-4H-inda-zole-3-carboxamide]	3.03	2310	3.06	–
CN1CC[C@@](O)(C#Cc2cccc(-n3nc(C(N)=O)c4c3CCOC4)c2)C1=O [Compound 70, 1-[3-[2-[(3R)-3-hydroxy-1-methyl-2-oxo-pyrrolidin-3-yl]ethynyl]phenyl]-6,7-dihy-dro-4H-pyrano[4,3-c]pyrazole-3-carboxamide]	20	864	0.75	–
CN1CC[C@@](O)(C#Cc2cccc(-n3nc(C(N)=O)c4cnc(C5CC5)nc43)c2)C1=O [Compound 158, 6-cyclopropyl-1-[3-[2-[(3R)-3-hydroxy-1-methyl-2-oxo-pyrrolidin-3-yl]ethynyl]phenyl]pyrazolo[3,4-d]pyri-midine-3-carboxamide]	2	46.2	0.23	–
Cc1cc2c(cn1)c(C(N)=O)nn2-c1cccc(C#C[C@]2(O)CCN(C)C2=O)c1 [Compound 131, 1-[3-[2-[(3R)-3-hydroxy-1-methyl-2-oxo-pyrrolidin-3-yl]ethynyl]phenyl]-6-methyl-pyrazolo[4,3-c]pyridine-3-carboxamide]	20	87	0.31	–
COc1ccc2c(C(N)=O)nn(-c3cccc(C#C[C@]4(O)CCN(C)C4=O)c3)c2c1 [Compound 22, 1-[3-[2-[(3R)-3-hydroxy-1-methyl-2-oxo-pyrrolidin-3-yl]ethynyl]phenyl]-6-methoxy-indazole-3-carboxamide]	20	94.8	0.34	–
CN1CC[C@@](O)(C#Cc2cccc(-n3nc(C(N)=O)c4cc(F)cnc43)c2)C1=O [Compound 75, 5-fluoro-1-[3-[2-[(3R)-3-hy-droxy-1-methyl-2-oxo-pyrroli-din-3-yl]ethynyl]phenyl] pyrazolo[3,4-b]pyridine-3-carboxamide]	20	56.9	0.24	–
CN1CC[C@@](O)(C#Cc2cccc(-n3nc(C(N)=O)c4c3COCC4)c2)C1=O [Compound 69, 1-[3-[2-[(3R)-3-hydroxy-1-methyl-2-oxo-pyrrolidin-3-yl]ethynyl]phenyl]-5,7-dihy-dro-4H-pyrano[3,4-c]pyrazole-3-carboxamide]	20	945	3.98	–
NC(=O)c1nn(-c2cc(C#C[C@]3(O)CCNC3=O)ccn2)c2cc(F)ccc12 [Compound 71, 6-fluoro-1-[4-[2-[(3R)-3-hy-droxy-2-oxo-pyrrolidin-3-yl]ethynyl]-2-pyridyl]indazole-3-carboxamide]	20	178	0.64	–
Cc1nc2c(s1)c(C(N)=O)nn2-c1cccc(C#C[C@]2(O)CCN(C)C2=O)c1 [Compound 25, 1-[3-[2-[(3R)-3-hydroxy-1-methyl-2-oxo-pyrrolidin-3-yl]ethynyl]phenyl]-5-methyl-pyrazolo[3,4-d]thiazole-3-carboxamide]	20	44.6	0.41	–
COc1cc2c(C(N)=O)nn(-c3cccc(C#C[C@]4(O)CCN(C)C4=O)c3)c2nn1 [Compound 173, 1-[3-[2-[(3R)-3-hydroxy-1-methyl-2-oxo-pyrrolidin-3-yl]ethynyl]phenyl]-5-methoxy-pyrazolo[3,4-c]pyridazine-3-carboxamide]	2	176	0.55	–
CN1CC[C@@](O)(C#Cc2cccc(-c3ccn4c(C(N)=O)nc(-c5cccc(C#C[C@]6(O)CCN(C)C6=O)c5)c4c3)c2)C1=O [Compound 95, 1,7-bis[3-[2-[(3R)-3-hydroxy-1-methyl-2-oxo-pyrrolidin-3-yl]ethynyl]phenyl]imi-dazo[1,5-a]pyridine-3-carbox-amide]	–	86.4	0.05	2
CN1CC[C@@](O)(C#Cc2cc(F)cc(-n3nc(C(N)=O)c4cccnc43)c2)C1=O [Compound 18, 1-[3-fluoro-5-[2-[(3R)-3-hy-droxy-1-methyl-2-oxo-pyrroli-din-3-yl]ethynyl]phenyl] pyrazolo[3,4-b]pyridine-3-carboxamide]	20	138	0.86	–
CN1CC[C@@](O)(C#Cc2cccc(-n3nc(C(N)=O)c4c3COC4)c2)C1=O [Compound 146, 1-[3-[2-[(3R)-3-hydroxy-1-methyl-2-oxo-pyrrolidin-3-yl]ethynyl]phenyl]-4,6-dihydro-furo[3,4-c]pyrazole-3-carbox-amide]	20	220	1.77	–
C[C@H]1CCc2c1c(C(N)=O)nn2-c1cccc(C#C[C@]2(O)CCN(C)C2=O)c1 [Compound 110, (4S)-1-[3-[2-[(3R)-3-hydroxy-1-methyl-2-oxo-pyrrolidin-3-yl]ethynyl]phenyl]-4-methyl-5,6-dihydro-4H-cyclo-penta[c]pyrazole-3-carbox-amide]	20	244	0.55	–
C[C@@H]1CCc2c1c(C(N)=O)nn2-c1cccc(C#C[C@]2(O)CCN(C)C2=O)c1 [Compound 109, (4R)-1-[3-[2-[(3R)-3-hydroxy-1-methyl-2-oxo-pyrrolidin-3-yl]ethynyl]phenyl]-4-methyl-5,6-dihydro-4H-cyclo-penta[c]pyrazole-3-carbox-amide]	20	209	9.58	–
CN1CC[C@@](O)(C#Cc2cccc(-n3nc(C(N)=O)c4cnccc43)c2)C1=O [Compound 132, 1-[3-[2-[(3R)-3-hydroxy-1-methyl-2-oxo-pyrrolidin-3-yl]ethynyl]phenyl]pyrazolo [4,3-c]pyridine-3-carboxamide]	20	88.7	0.378	–
CN1CC[C@@](O)(C#Cc2cccc(-n3nc(C(N)=O)c4ccc(N5CCOCC5)nc43)c2)C1=O [Compound 155, 1-[3-[2-[(3R)-3-hydroxy-1-methyl-2-oxo-pyrrolidin-3-yl]ethynyl]phenyl]-6-morpho-lino-pyrazolo[3,4-b]pyri-dine-3-carboxamide]	20	129	0.26	–
Cc1cc2c(C(N)=O)nn(-c3cccc(C#C[C@]4(O)CCN(C)C4=O)c3)c2cn1 [Compound 149, 1-[3-[2-[(3R)-3-hydroxy-1-methyl-2-oxo-pyrrolidin-3-yl]ethynyl]phenyl]-5-methyl-pyrazolo[3,4-c]pyridine-3-carboxamide]	20	215	1.08	–
CN1CC[C@@](O)(C#Cc2cccc(-n3nc(C(N)=O)c4c(NC5CC5)nccc43)c2)C1=O [Compound 130, 4-(cyclopropylamino)-1-[3-[2-[(3R)-3-hydroxy-1-meth-yl-2-oxo-pyrrolidin-3-yl]eth-ynyl]phenyl]pyrazolo[4,3-c]pyridine-3-carboxamide]	2	53.1	0.11	–
CC(O)(C#Cc1cccc(-n2nc(C(N)=O)c3ccccc32)c1)c1nccs1 (single isomer, unassigned) [Compound 170]	–	244	0.75	17.1
CN1CC[C@@](O)(C#Cc2cccc(-c3nc(C(N)=O)n4ccc(CN5CCOCC5)cc34)c2)C1=O [Compound 99, 1-[3-[2-[(3R)-3-hydroxy-1-methyl-2-oxo-pyrrolidin-3-yl]ethynyl]phenyl]-7-(morpho-linomethyl)imidazo[1,5-a]pyridine-3-carboxamide]	2	231	1.52	–
Cc1ccc2c(C(N)=O)nn(-c3cccc(C#C[C@]4(O)CCN(C)C4=O)c3)c2n1 [Compound 175, 1-[3-[2-[(3R)-3-hydroxy-1-methyl-2-oxo-pyrrolidin-3-yl]ethynyl]phenyl]-6-methyl-pyrazolo[3,4-b]pyridine-3-carboxamide]	> 2	135	0.05	–
CN1CC[C@@](O)(C#Cc2cccc(-n3nc(C(N)=O)c4cc(-c5cnn(CCO)c5)ccc43)c2)C1=O [Compound 113, 5-[1-(2-hydroxyethyl)pyrazol-4-yl]-1-[3-[2-[(3R)-3-hy-droxy-1-methyl-2-oxo-pyrroli-din-3-yl]ethynyl]phenyl] indazole-3-carboxamide]	20	440	0.07	–
CCOc1cc2c(cn1)c(C(N)=O)nn2-c1cccc(C#C[C@]2(O)CCN(C)C2=O)c1 [Compound 136, 6-ethoxy-1-[3-[2-[(3R)-3-hy-droxy-1-methyl-2-oxo-pyrroli-din-3-yl]ethynyl]phenyl] pyrazolo[4,3-c]pyridine-3-carboxamide]	20	72.6	0.39	–
CN1CC[C@@](O)(C#Cc2cccc(-n3nc(C(N)=O)c4c3CCN(c3nccs3)C4)c2)C1=O [Compound 122, 1-[3-[2-[(3R)-3-hydroxy-1-methyl-2-oxo-pyrrolidin-3-yl]ethynyl]phenyl]-5-thiazol-2-yl-6,7-dihydro-4H-pyra-zolo[4,3-c]pyridine-3-carbox-amide]	20	266	0.29	–
